In ChEMBL document CHEMBL3785016, “Design, synthesis, and anti-breast cancer evaluation of new triarylethylene analogs bearing short alkyl- and polar amino-/amido-ethyl chains” (Bioorg Med Chem Lett, 2016):
pIC50: −log10 of the molar value. Active and inactive are the calls of the source. No cut-off for these calls is given here.

Key:
MDA-MB-231 [1] = assay: Cytotoxicity against human ER-negative MDA-MB-231 cells assessed as cell viability after 72 hrs by MTT assay; assay type: functional, cell-based; conditions: for pIC50: MDA-MB-231, 72 h
MCF7 [2] = assay: Cytotoxicity against human ER-positive MCF7 cells assessed as cell viability after 72 hrs by MTT assay; assay type: functional, cell-based; conditions: for pIC50: Homo sapiens, MCF7, 72 h, read-out: IC50; for IC50: mcf7
MDA-MB-231 [3] = assay: Inhibition of MMP9 expression in human ER-negative MDA-MB-231 cells after 24 hrs by western blotting; assay type: functional, cell-based
MCF7 [4] = assay: Inhibition of c-Myc expression in human ER-positive MCF7 cells after 24 hrs by western blotting; assay type: functional, cell-based
MDA-MB-231 [5] = assay: Inhibition of c-Myc expression in human ER-negative MDA-MB-231 cells after 24 hrs by western blotting; assay type: functional, cell-based
MDA-MB-231 [6] = assay: Antimigratory activity in human ER-negative MDA-MB-231 cells assessed as cell migration level at 1 uM after 24 hrs by scratch assay; assay type: functional
MCF7 [7] = assay: Inhibition of caveolin-1 expression in human ER-positive MCF7 cells after 24 hrs by western blotting; assay type: functional, cell-based
MDA-MB-231 [8] = assay: Inhibition of cell invasion in human ER-negative MDA-MB-231 cells after 24 hrs by Boyden chamber transwell invasion assay; assay type: functional, cell-based
MDA-MB-231 [9] = assay: Inhibition of caveolin-1 expression in human ER-negative MDA-MB-231 cells after 24 hrs by western blotting; assay type: functional, cell-based
MDA-MB-231 [10] = assay: Antimigratory activity in human ER-negative MDA-MB-231 cells assessed as cell migration level at 0.5 uM after 24 hrs by scratch assay; assay type: functional
MCF7 [11] = assay: Inhibition of MMP9 expression in human ER-positive MCF7 cells after 24 hrs by western blotting; assay type: functional, cell-based
MDA-MB-231 [12] = assay: Inhibition of caveolin-1 expression in human ER-negative MDA-MB-231 cells at 10 and 25 uM after 24 hrs by western blotting; assay type: functional, cell-based
MCF7 [13] = assay: Inhibition of c-Myc expression in human ER-positive MCF7 cells at 10 and 25 uM after 24 hrs by western blotting; assay type: functional, cell-based
MCF7 [14] = assay: Inhibition of caveolin-1 expression in human ER-positive MCF7 cells at 10 and 25 uM after 24 hrs by western blotting; assay type: functional, cell-based
MCF7 [15] = assay: Inhibition of MMP9 expression in human ER-positive MCF7 cells at 10 and 25 uM after 24 hrs by western blotting; assay type: functional, cell-based
MDA-MB-231 [16] = assay: Inhibition of MMP9 expression in human ER-negative MDA-MB-231 cells at 10 and 25 uM after 24 hrs by western blotting; assay type: functional, cell-based
MDA-MB-231 [17] = assay: Inhibition of c-Myc expression in human ER-negative MDA-MB-231 cells at 10 and 25 uM after 24 hrs by western blotting; assay type: functional, cell-based

CCN(CC)C(=O)NCC/C(=C(\c1ccccc1)c1ccc(OC)cc1)c1ccccc1
pIC50 (MDA-MB-231 [1]): 4.39
pIC50 (MCF7 [2]): < 4.30

COc1ccc(/C(=C(/CCN)c2ccccc2)c2ccccc2)cc1
inhibition (MDA-MB-231 [3]): Dose-dependent effect
inhibition (MCF7 [4]): Dose-dependent effect
inhibition (MDA-MB-231 [5]): Dose-dependent effect
Activity (MDA-MB-231 [6]): 25%
inhibition (MCF7 [7]): Dose-dependent effect
inhibition (MDA-MB-231 [8]): Dose-dependent effect
inhibition (MDA-MB-231 [9]): Dose-dependent effect
Activity (MDA-MB-231 [10]): 60%
inhibition (MCF7 [11]): Dose-dependent effect

COc1ccc(/C(=C(/CCNC(=O)N2CCCC2)c2ccccc2)c2ccccc2)cc1
pIC50 (MDA-MB-231 [1]): < 4.30
pIC50 (MCF7 [2]): < 4.30

COc1ccc(/C(=C(/CCNC(=O)C(=O)N2CCOCC2)c2ccccc2)c2ccccc2)cc1
pIC50 (MDA-MB-231 [1]): 4.70
pIC50 (MCF7 [2]): 4.36

COc1ccc(/C(=C(/CCNC(=O)C(=O)N2CCCCC2)c2ccccc2)c2ccccc2)cc1
pIC50 (MDA-MB-231 [1]): < 4.30
pIC50 (MCF7 [2]): < 4.30

COc1ccc(/C(=C(/CCNC(=O)C(=O)N2CCCC2)c2ccccc2)c2ccccc2)cc1
pIC50 (MDA-MB-231 [1]): 4.31
pIC50 (MCF7 [2]): < 4.30

OCCOc1ccc(/C(=C(/CCCl)c2ccccc2)c2ccccc2)cc1 [OSPEMIFENE]
Activity (MDA-MB-231 [6]): inactive
pIC50 (MDA-MB-231 [1]): < 4.30
pIC50 (MCF7 [2]): < 4.30

COc1ccc(/C(=C(/CCCl)c2ccccc2)c2ccccc2)cc1
pIC50 (MDA-MB-231 [1]): < 4.30
pIC50 (MCF7 [2]): < 4.30

COc1ccc(/C(=C(/CCNC(=O)Oc2ccccc2)c2ccccc2)c2ccccc2)cc1
Activity (MDA-MB-231 [1]): inactive
IC50 (MCF7 [2]): Not Active

COc1ccc(/C(=C(/CCNC(=O)N2CCOCC2)c2ccccc2)c2ccccc2)cc1
pIC50 (MDA-MB-231 [1]): 4.37
pIC50 (MCF7 [2]): < 4.30

COc1ccc(/C(=C(/CCNC(=O)C(=O)NC2CCCCC2)c2ccccc2)c2ccccc2)cc1
inhibition (MDA-MB-231 [12]): inactive
Activity (MDA-MB-231 [6]): inactive
inhibition (MCF7 [13]): Active
pIC50 (MDA-MB-231 [1]): 4.91
inhibition (MCF7 [14]): inactive
pIC50 (MCF7 [2]): 4.92
inhibition (MCF7 [15]): Active
inhibition (MDA-MB-231 [16]): Active
inhibition (MDA-MB-231 [17]): Active

CCOC(=O)C(=O)NCC/C(=C(\c1ccccc1)c1ccc(OC)cc1)c1ccccc1
pIC50 (MDA-MB-231 [1]): < 4.30
pIC50 (MCF7 [2]): < 4.30

COc1ccc(/C(=C(/CCNC(=O)NCc2ccccc2)c2ccccc2)c2ccccc2)cc1
pIC50 (MDA-MB-231 [1]): < 4.30
pIC50 (MCF7 [2]): < 4.30

COc1ccc(/C(=C(/CCNC(=O)N2CCCCC2)c2ccccc2)c2ccccc2)cc1
pIC50 (MDA-MB-231 [1]): < 4.30
pIC50 (MCF7 [2]): < 4.30

COc1ccc(/C(=C(/CCN=[N+]=[N-])c2ccccc2)c2ccccc2)cc1
Activity (MDA-MB-231 [1]): inactive
IC50 (MCF7 [2]): Not Active

COc1ccc(/C(=C(/CCNC(=O)NC2CCCCC2)c2ccccc2)c2ccccc2)cc1
pIC50 (MDA-MB-231 [1]): < 4.30
pIC50 (MCF7 [2]): 4.43

COc1ccc(/C(=C(/CCNC(=O)C(=O)NCc2ccccc2)c2ccccc2)c2ccccc2)cc1
inhibition (MDA-MB-231 [12]): inactive
Activity (MDA-MB-231 [6]): inactive
inhibition (MCF7 [13]): Active
pIC50 (MDA-MB-231 [1]): 4.94
inhibition (MCF7 [14]): inactive
pIC50 (MCF7 [2]): < 4.30
inhibition (MCF7 [15]): Active
inhibition (MDA-MB-231 [16]): Active
inhibition (MDA-MB-231 [17]): Active
